Source: patent US20260069725A1, “LIGAND COMPOUND TARGETING PSMA ANTIGEN, AND CHELATE AND USE THEREOF IN DIAGNOSIS AND TREATMENT OF PROSTATE CANCER” (Chengdu StarRay Therapeutics Co., Ltd, priority 2021, published 2026)

Experiments:
[1] = test system: LNCaP tumor bearing mice; assay: SPECT/CT scanning, exposure of 177Lu labeled compounds in tumor and tissues; type: in vivo; settings: for Exposure in Bladder / Exposure in Bone / Exposure in Heart / Exposure in Kidney / Exposure in Liver / Exposure in Lung / Exposure in Muscle / Exposure in Spleen / Exposure in Tumor: labeled with 177Lu, about 7.4 MBq (200 μCi) tail vein, scans 1-72 h
Description: The ^177Lu labeled precursor compound was diluted to 7.4 MBq (200 μCi)/200 […] with normal saline, and each tumor bearing mouse was given about 7.4 MBq (200 μCi) of the drug via tail vein injection. SPECT/CT scanning was performed on the mice at 1, 4, 8, 24, 48 and 72 h after administration, respectively, with the mice under continuous anesthesia with isoflurane, lying prone on an examination bed. The acquisition method was static imaging 12 min SPECT, and medium resolution whole-body imaging CT. During the process, according to the recording table, the animal body weight, injection dose, injection time and residual dose were recorded, and the time of measuring the injection dose and the time of measuring the residual dose were recorded respectively. After scanning, the data were reconstructed, PMOD software was used to analyze and delineate each organ tissue and quantify the drug distribution therein, the images and data were saved, and the data were further subjected to statistical analysis.
Drug exposure in each tissue was calculated (Table 1, where the values involving PSMA-D were the predicted values).

[2] = test system: LNCaP tumor bearing mice; assay: Inhibition on tumor; type: in vivo; settings: 14.8 MBq (400 μCi)
Description: PSMA positive LNCaP cells were proliferated and harvested, and then inoculated subcutaneously in mice at an amount of 1×10^7/mouse. When the tumors grew to 200-400 mm^3, the mice were randomly grouped according to the tumor size (3-4 mice in each group), and were given the compound (400 μCi) of the present invention labeled with […] or the positive control compound PSMA-617 labeled with ^177Lu via tail vein injection, respectively. The tumor sizes and body weights of the mice were measured every 3 days after administration, and the death of the mice was recorded. The control group and the administration group were compared to understand the inhibition on LNCaP tumors by different drugs. On day 6 after administration, SPECT/CT scanning was performed on the administration group to understand the exposure of different drugs at the tumor sites during the treatment.

Row | Compound | Exposure in Bladder [1] [h*ID %/g] | Exposure in Bone [1] [h*ID %/g] | Exposure in Heart [1] [h*ID %/g] | Exposure in Kidney [1] [h*ID %/g] | Exposure in Liver [1] [h*ID %/g] | Exposure in Lung [1] [h*ID %/g] | Exposure in Muscle [1] [h*ID %/g] | Exposure in Spleen [1] [h*ID %/g] | Exposure in Tumor [1] [h*ID %/g] | drug exposure in the LNCaP tumor, in words ([1]; in contrast to PSMA-617) | exposure in the normal tissues, in words ([1]; in contrast to PSMA-617) | body weight of the animals during the treatment [2]
1 | COc1ccc(C(=O)N[C@@H](CCCCNC(=O)CN2CCN(CC(=O)O)CCN(CC(=O)O)CCN(CC(=O)O)CC2)C(=O)NCC2CCC(C(=O)N[C@@H](Cc3ccc4ccccc4c3)C(=O)NCCCC[C@H](NC(=O)N[C@@H](CCC(=O)O)C(=O)O)C(=O)O)CC2)cc1 (stereo partly drawn) [PSMA-I] | 831.9 | 50.24 | 23.61 | 776.8 | 55.24 | 31.12 | 62.66 | 65.02 | 95.56 | – | – | –
2 | COc1ccc(C(=O)NCCN2CCN(C(=O)CCC(=O)N[C@@H](CCCCNC(=O)CN3CCN(CC(=O)O)CCN(CC(=O)O)CCN(CC(=O)O)CC3)C(=O)NCC3CCC(C(=O)N[C@@H](Cc4ccc5ccccc5c4)C(=O)NCCCC[C@H](NC(=O)N[C@@H](CCC(=O)O)C(=O)O)C(=O)O)CC3)CC2)cc1 (stereo partly drawn) [PSMA-K] | 585.9 | 32.71 | 54.52 | 79.78 | 314.2 | 278.5 | 26.77 | 83.81 | 281 | – | – | –
3 | COc1ccc(C(=O)NCCN2CCN(C(=O)CCC(=O)N[C@@H](CCCCNC(=O)CN3CCN(CC(=O)O)CCN(CC(=O)O)CCN(CC(=O)O)CC3)C(=O)N3CCc4cc(C(=O)N[C@@H](Cc5ccc6ccccc6c5)C(=O)NCCCC[C@H](NC(=O)N[C@@H](CCC(=O)O)C(=O)O)C(=O)O)ccc4C3)CC2)cc1 [PSMA-L] | 499.3 | 15.5 | 40.58 | 148.8 | 62.47 | 51.83 | 37.2 | 34.43 | 1350 | greatly increase the drug exposure in the LNCaP tumor | kept at a lower level | –
4 | O=C([O-])CN1CCN(CC(=O)[O-])CCN(CC(=O)NCC2CCC(C(=O)N[C@@H](Cc3ccc4ccccc4c3)C(=O)NCCCC[C@H](NC(=O)N[C@@H](CCC(=O)O)C(=O)O)C(=O)O)CC2)CCN(CC(=O)[O-])CC1.[177Lu+3] (stereo partly drawn) [^177Lu-PSMA-617] | – | – | – | – | – | – | – | – | – | – | – | no significant difference
